Results from patent US7642249B2, “Dihydrogen phosphate salt of a prostaglandin D2 receptor antagonist” (Aventis Pharmaceuticals Inc., priority 2005, dated 2010).
Converted amounts (≈) assume the structure as drawn. Structures can show the parent of a compound that is named as a salt.

Columns and labels:
Assay type in all cases: physicochemical
[1] = Solubility in phosphate buffer (PBS pH 7.4)
Description: (§1) The dihydrogen phosphate salt has increased aqueous solubility over the free form and the hydrochloride salt. The following chart lists the solubilities of the free form, the hydrochloride salt and the dihydrogen phosphate salt at 25° C. in phosphate buffer (PBS pH 7.4, a mixture of 19% of a 0.1M monobasic sodium phosphate solution and 81% of a 0.1M dibasic sodium phosphate solution) and the solubilities of the free form and the dihydrogen phosphate salt 37° C. in a simulated intestinal fluid under fasted conditions (“FaSSIF”, prepared according to Dressman J. B., Amidon G. L., Reppas C. and Shah V. P., Dissolution testing as a prognostic tool for oral drug absorption: immediate release dosage forms, Pharmaceutical Research: 1998, Vol. 15, No. 1, 11-22).

[2] = Solubility in simulated intestinal fluid under fasted conditions (FaSSIF)
Description: as §1

[3] = Dynamic water vapor sorption (DVS) hygroscopicity; conditions: at 94% relative humidity (RH)
Description: Dynamic Water Vapor Sorption (DVS)
The water sorption profile is determined using a SMS Instruments Dynamic Vapor Sorption Analyzer Model DVS-1 or VTI Instruments Model SGA-100 Dynamic Vapor Sorption Analyzer. RH and weight are calibrated using standards. The dihydrogen phosphate salt is loaded and dried at ≦1% RH for 2.5 hours prior to starting the experiment. The RH is stepped from about 0 to 95% RH. The specimen weight is considered constant at each step when percent mass change is less than 0.005% over a 5-minute interval with a minimum absolute equilibration time of 15 minutes.

Solubility (PBS pH 7.4, 25° C., μg/mL) [1] | Solubility in FaSSIF (37° C., ug/mL) [2] | weight gain during the sorption (DVS) [3] | Structure (SMILES)
15 μg/mL | 266 µg/mL | ~0.9% | COc1nc(NCCc2ccc(Cl)cc2Cl)cc(-c2cccc(C(C)(C)C(=O)O)c2)n1 [Dihydrogen phosphate salt, Dihydrogen phosphate salt of 2-(3-{6-[2-(2,4-Dichloro-phenyl)-ethylamino]-2-methoxy-pyrimidin-4-yl}-phenyl)-2-methyl-propionic acid]
<1 μg/mL | 14 µg/mL (≈ 30.4 µM) | – | COc1nc(NCCc2ccc(Cl)cc2Cl)cc(-c2cccc(C(C)(C)C(=O)O)c2)n1 [Free form, 2-(3-{6-[2-(2,4-dichloro-phenyl)-ethylamino]-2-methoxy-pyrimidin-4-yl}-phenyl)-2-methyl-propionic acid]
5 μg/mL | – | – | COc1nc(NCCc2ccc(Cl)cc2Cl)cc(-c2cccc(C(C)(C)C(=O)O)c2)n1 [Hydrochloride salt, 2-(3-{6-[2-(2,4-dichloro-phenyl)-ethylamino]-2-methoxy-pyrimidin-4-yl}-phenyl)-2-methyl-propionic acid]
